Test [1] relates to Male CD-1 mice. Kind of test: Mouse Dehydrocorticosterone Challenge Model, plasma corticosterone. The format is in vivo. The method, then: Male CD-1 (18-22 g) mice (Charles River, Madison, Wis.) were group housed and allowed free access to food and water. Mice are brought into a quiet procedure room for acclimation the night before the study. Animals are dosed with vehicle or compound at various times (pretreatment period) before being challenged with 11-dehydrocorticosterone (Steraloids Inc., Newport, R.I.). Thirty minutes after challenge, the mice are euthanized with CO2 and blood samples (EDTA) are obtained by cardiac puncture and immediately placed on ice. Blood samples were then spun, the plasma was removed, and the samples frozen until further analysis was performed. Corticosterone levels were obtained by ELISA (American Laboratory Prod., Co., Windham, N.H.) or HPLC/mass spectroscopy.

For test [2], the system named is healthy volunteers. As to conditions: seven days; cited from earlier work.
The test system of test [3] is Male B6.VLep ob(-/-) (ob/ob) mice. Kind of test: ob/ob Mouse Model of Type 2 Diabetes. In kind it is in vivo. As to conditions: three weeks. On the procedure: Male B6.VLep^ob(−/−) (ob/ob) mice and their lean littermates (Jackson Laboratory, Bar Harbor, Me.) were group housed and allowed free access to food (Purina 5015) and water. Mice were 6-7 weeks old at the start of each study. On day 0, animals were weighed and postprandial glucose levels determined (Medisense Precision-X™ glucometer, Abbott Laboratories). […] Animals were weighed, and postprandial glucose measurements were taken weekly throughout the study. On the last day of the study, 16 hours post dose (unless otherwise noted) the mice were euthanized via CO2, and blood samples (EDTA) were taken by cardiac puncture and immediately placed on ice. Whole blood measurements for HbA1c were taken with hand held meters (A1c NOW, Metrika Inc., Sunnyvale Calif.). Blood samples were then spun and plasma was removed and frozen until further analysis. The plasma triglyceride levels were determined according to instructions by the manufacturer (Infinity kit, Sigma Diagnostics, St. Louis Mo.).

In the case of `C[C@]12CC(=O)[C@H]3[C@@H](CCC4=CC(=O)CC[C@@]43C)[C@@H]1CC[C@@H]2C(=O)CO` [Example 11-DHC, 11-dehydrocorticosterone, reference compound], the Plasma corticosterone levels in test [1] (11-DHC challenge without compound, pretreatment period 0.5 hours) stood at 1478 ± 180; in test [1] (11-DHC challenge without compound, pretreatment period 16 hours), 1200 ± 86.
As to `CC1(C)[C@@H](OC(=O)CCC(=O)O)CC[C@]2(C)[C@H]3C(=O)C=C4[C@@H]5C[C@@](C)(C(=O)O)CC[C@]5(C)CC[C@@]4(C)[C@]3(C)CC[C@@H]12` [carbenoxolone], the “reduction of IOP” value in test [2] is 17%.
Consider `CC(C(=O)NC1C2CC3CC1CC(O)(C3)C2)N1CCN(c2ccc(C(F)(F)F)cn2)CC1` (stereo not shown) [Compound F, N-[(E)-5-hydroxy-2-adamantyl]-2-{4-[5-(trifluoromethyl)pyridin-2-yl]piperazin-1-yl}propanamide], for which the Plasma corticosterone levels in test [1] (30 mpk followed by 11-DHC, pretreatment period 0.5 hours) amounted to 1297 ± 121; in test [1] (30 mpk followed by 11-DHC, pretreatment period 16 hours) it was 1402 ± 99; in test [1] (100 mpk followed by 11-DHC, pretreatment period 0.5 hours) it was 742 ± 119; in test [1] (100 mpk followed by 11-DHC, pretreatment period 16 hours), 1422 ± 129. Also, the figures for the “% HbA1c” value in test [3] (30 mpk twice daily) and in test [3] (100 mpk twice daily) were 7.6 ± 0.6% and 6.4 ± 0.5%, respectively. Also, the Glucose is on record as 295 ± 31 mg/dL in test [3] (30 mpk twice daily) and 263 ± 21 mg/dL in test [3] (100 mpk twice daily). The Triglycerides in test [3] (30 mpk twice daily) was 255 ± 22 mg/dL; in test [3] (100 mpk twice daily), 282 ± 36 mg/dL.

The values are drawn from patent publication US20050245534A1, “Inhibitors of the 11-beta-hydroxysteroid dehydrogenase Type 1 enzyme” (priority 2004, published 2005).
